Experimental data taken from publication PMC10537105, “Derivatives Incorporating Acridine, Pyrrole, and Thiazolidine Rings as Promising Antitumor Agents” (Molecules, 2023).

Tests used:
[1] = tested on: COS-7; assay: MTT assay, COS-7 normal cells; assay type: cell-based, monkey; conditions: Primates, COS-7, 72 h of incubation, normal cell line, read-out: IC50 values ± SD, COS-7
Excerpt: (§1) The impact of acridine spiro derivatives 6–10 (Figure 13) on the metabolic activity of various tumor cell lines HCT-116 (human colorectal carcinoma), Jurkat (human leukemia cells), HeLa (human cervical adenocarcinoma), MDA-MB-231, and MCF-7 (human breast adenocarcinoma), and normal cell lines COS-7 (monkey kidney cells) and BJ-5ta (skin fibroblasts) was investigated using the MTT assay. This assay measures the conversion of yellow 3-(4,5-dimethylthiazol-2-yl)-2,5-diphenyltetrazolium bromide (MTT) to insoluble purple formazan by metabolically active cells. The antiproliferative activities of the tested compounds were determined based on the results from the MTT assay, and the inhibitory concentration values (IC50) are presented in Table 5.
(§2) The human cancer cell lines employed in this study were sourced from reputable institutions, including the American Type Culture Collection (ATCC; Manassas, VA, USA) and the European Collection of Authenticated Cell Cultures (ECACC, Salisbury, UK). Specifically, HeLa (93021013, human cervical adenocarcinoma), HCT116 (CCL-247TM, human colorectal carcinoma), and Jurkat (88042803, human leukemic T-cell lymphoma) were cultured in RPMI 1640 medium (Biosera, Kansas City, MO, USA). In contrast, MCF-7 (HTB-22TM, human breast adenocarcinoma, ER+), MDA-MB-231 (HTB-26TM, human breast adenocarcinoma, ER−), and COS-7 (CRL-1651TM, kidney fibroblasts) were nurtured in high-glucose Dulbecco’s Modified Eagle Medium (DMEM) supplemented with sodium pyruvate (Biosera). Furthermore, BJ-5ta (CRL-4001TM, human dermal fibroblasts) was cultured in a composite medium of high-glucose DMEM and M199 (4:1) (Biosera), supplemented with Hygromycin B (0.01 mg/mL; Merck, Darmstadt, Germany). All culture media were enriched with a 10% fetal bovine serum (FBS; Gibco, Thermo Scientific, Rockford, IL, USA) and an antibiotic/antimycotic solution (Merck) to ensure optimal growth conditions. The cells were meticulously maintained within a humidified environment containing 5% CO2 at 37 °C. Regular screenings for mycoplasma contamination were conducted using Hoechst 33342 staining (Merck), confirming the integrity of the cell lines.
(§3) To assess the antiproliferative impact of the synthesized compounds 6–10, their half-maximal inhibitory concentration (IC50) and the MTT colorimetric assay were employed. MDA-MB-231 and MCF-7 cells were seeded into 96-well microplates (SARSTEDT, Nümbrecht, Germany) at a density of 5 × 10^3 cells per well. After 24 h of cell seeding, various concentrations (100, 50, and 10 µmol/L) of acridine derivatives 6–10 were introduced, alongside cisplatin (utilized as a reference) at concentrations of 5, 10, 20, 50, and 100 µmol/L. Subsequent to 24, 48, and 72 h of treatment, the cells in each well underwent incubation with MTT (5 mg/mL, Sigma-Aldrich Chemie, Steinheim, Germany) for 4 h at 37 °C in the dark. During this period, mitochondrial oxidoreductases metabolized MTT, forming insoluble formazan. Following this, 100 µL of SDS (10% […]) was added to dissolve the formazan crystals, and the cells were incubated for an additional 12 h. Absorbance at 540 nm was measured using the automated Cytation™ 3 Cell Imaging Multi-Mode Reader (Biotek, Winooski, VT, USA). Each test was performed in triplicate, and three independent experiments were conducted to ensure precision and reliability.

[2] = tested on: MDA-MB-231; assay: MTT assay, MDA-MB-231 cells; assay type: cell-based, human; conditions: Homo sapiens, MDA-MB-231, 72 h of incubation, read-out: IC50 values ± SD, MDA-MB-231
Excerpt: as §1, §2, §3

[3] = tested on: HeLa; assay: MTT assay, HeLa cells; assay type: cell-based, human; conditions: Homo sapiens, HeLa, 72 h of incubation, read-out: IC50 values ± SD, HeLa
Excerpt: as §1, §2, §3

[4] = tested on: MCF-7; assay: MTT assay, MCF-7 cells; assay type: cell-based, human; conditions: Homo sapiens, MCF7, 72 h of incubation, read-out: IC50 values ± SD, MCF-7
Excerpt: as §1, §2, §3

[5] = tested on: primary brain endothelial cells; assay: Endothelial cell viability assay (ATP, CellTiter-Glo); assay type: cell-based, rats; conditions: primary rat brain endothelial cells
Excerpt: To comprehensively evaluate the cytotoxic effects of the investigated compounds 6c, 6e, and 8a, 8c, we conducted tests on primary endothelial cells. This additional assessment served multiple purposes in our study. Firstly, it aimed to assess the selectivity of these compounds, particularly in comparison to their effects on both tumor and normal cell lines. […] Secondly, by examining their impact on endothelial cells, we aimed to explore potential off-target effects, as endothelial cells are crucial components of blood vessels and play a pivotal role in angiogenesis—a process intricately linked to tumor growth. Lastly, these tests allowed for a broader safety assessment, beyond the scope of tumor and normal cell lines, providing insights into the compounds’ implications for vascular health and their regulatory role in angiogenesis.
Primary brain endothelial cells were isolated from rats (200–250 g, […]; n = 5 per isolation). Euthanasia was performed by CO2 exposure, followed by brain removal. The brainstem and cerebellum were dissected, and the white matter from the midbrain and choroid plexus was excised under sterile conditions. Cortical tissues were meticulously cleaned of meninges and homogenized on ice in a DMEM-F12 medium (PAA Laboratories GmbH, Cölbe, Germany) with 0.1% bovine serum albumin (BSA, Sigma-Aldrich, St. Louis, MO, USA). The homogenate was centrifuged at 800× g for 10 min at 4 °C. After aspirating the supernatant, the pellet was resuspended in a pre-warmed digestion mix containing 1 mg/mL collagenase/dispase (Roche Diagnostics, Indianapolis, IN, USA) and 10 μg/mL DNase I (Roche Diagnostics, Indianapolis, IN, USA). The homogenates were then incubated with the pre-prepared digestion mix at 37 °C for 30 min with gentle shaking. The preparation was centrifuged at 800× g for 10 min at 4 °C, and the pellets were resuspended in 20% BSA in the medium. The tissues were centrifuged at 1500× g for 15 min at 4 °C to obtain a pellet containing microvessels with a fraction of myelin and BSA on top, which was centrifuged again. The microvessels were pooled and resuspended in a pre-warmed digestion mix and incubated for 15 min at 37 °C. The pellet was then centrifuged at 800× g for 10 min at 4 °C and washed with a serum-containing DMEM-F12 culture medium. […] The endothelial cells were ready to use after 7 days.
The endothelial cell viability was assessed through the quantification of adenosine triphosphate (ATP) released from the cells, utilizing the ATP assay as per the manufacturer’s instructions (The Promega CellTiter-Glo™ Luminescent Cell Viability Assay Kit, Madison, WI, USA). […]

[6] = tested on: Jurkat; assay: MTT assay, Jurkat cells; assay type: cell-based, human; conditions: for IC50: Homo sapiens, Jurkat, MTT, 72 h of incubation, read-out: IC50 values ± SD, Jurkat
Excerpt: as §1, §2, §3

[7] = tested on: HCT-116; assay: MTT assay, HCT-116 cells; assay type: cell-based, human; conditions: for IC50: Homo sapiens, HCT-116, MTT, 72 h of incubation, read-out: IC50 values ± SD, HCT-116
Excerpt: as §1, §2, §3

[8] = tested on: BJ-5ta; assay: MTT assay, BJ-5ta normal fibroblasts; assay type: cell-based, human; conditions: Homo sapiens, Fibroblast, 72 h of incubation, normal cell line, read-out: IC50 values ± SD, BJ-5ta
Excerpt: as §1, §2, §3

Row | IC50 [2] [µM] | IC50 [3] [µM] | IC50 [4] [µM] | IC50 [6] [µM] | melting point | IC50 [7] [µM] | Compound | IC50 [1] [µM] | IC50 [5] [µM] | selectivity index, Jurkat compared to non-tumor cells COS-7 and BJ-5ta ([6]; ratio of IC50 values) | selectivity index, HCT-116 compared to non-tumor cells COS-7 and BJ-5ta ([7]; ratio of IC50 values) | IC50 [8] [µM]
1 | 47.2 ± 1.17 | 41.1 ± 1.91 | 34.2 ± 5.01 | 6.47 ± 0.27 | 184 to 186 °C (dec.) | 7 ± 0.22 | COc1cccc(NC(=S)NN2C(=O)C(C#N)=CC23c2ccccc2Nc2ccccc23)c1 [6c, 3-{4′-Cyano-5′-oxo-1′,5′-dihydro-10H-spiro[acridine-9,2′-pyrrol]-1′-yl}-1-(3-methoxyphenyl)thiourea] | 83.4 ± 4.79 | 39 | exceeding 10 | exceeding 10 | 73.2 ± 2.41
2 | 7.98 ± 0.93 | 5.83 ± 0.03 | 7.75 ± 0.41 | 5.67 ± 0.03 | 239 to 243 °C (dec.) | 5.44 ± 0.05 | CCOC(=O)/C=C1\S/C(=N\N2C(=O)C(C#N)=CC23c2ccccc2Nc2ccccc23)N(c2cccc(OC)c2)C1=O [8c, Ethyl 2-[(2Z,5Z)-2-({4′-cyano-5′-oxo-1′,5′-dihydro-10H-spiro[acridine-9,2′-pyrrol]-1′-yl}imino)-3-(3-methoxyphenyl)-4-oxo-1,3-thiazolidin-5-ylidene]acetate] | 8.95 ± 0.08 | 20 | – | – | 7.18 ± 0.19
3 | 7.85 ± 0.69 | 5.77 | 7.9 ± 0.49 | 5.67 ± 0.06 | 256 to 259 °C (dec.) | 5.46 ± 0.04 | CCOC(=O)/C=C1\S/C(=N\N2C(=O)C(C#N)=CC23c2ccccc2Nc2ccccc23)N(c2ccccc2)C1=O [8a, Ethyl 2-[(2Z,5Z)-2-({4′-cyano-5′-oxo-1′,5′-dihydro-10H-spiro[acridine-9,2′-pyrrol]-1′-yl}imino)-4-oxo-3-phenyl-1,3-thiazolidin-5-ylidene]acetate] | 9.15 ± 0.12 | 5 | – | – | 7.25 ± 0.41
4 | 78.8 ± 4.87 | 52.1 ± 2.99 | 39.7 ± 0.58 | 7.82 ± 0.31 | 175 to 179 °C (dec.) | 19.6 ± 1.07 | N#CC1=CC2(c3ccccc3Nc3ccccc32)N(NC(=S)Nc2ccc([N+](=O)[O-])cc2)C1=O [6e, 3-{4′-Cyano-5′-oxo-1′,5′-dihydro-10H-spiro[acridine-9,2′-pyrrol]-1′-yl}-1-(4-nitrophenyl)thiourea] | 87.1 ± 5.82 | 45 | – | – | 71.1 ± 2.62
